The values below come from patent US9802937B2, “Substituted pyrazolo{4,3-D}pyrimidines as kinase inhibitors” (ORIGENIS GMBH, priority 2011, dated 2017).

In one assay the target is T1, SYK kinase (Homo sapiens, UniProt P43405).
T1 construct: purchased Invitrogen, Carlsbad
Put plainly: SYK Assay (OMNIA KINASE ASSAY, SOX peptide fluorescence). The class given is biochemical. Particulars: apparent Ki calculated from the IC50 using the Cheng-Prusoff equation; 1 mM ATP, 30° C.; read-out: SYK Activities: Ki. A digest of the protocol:
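Apparent Ki values are derived by Cheng-Prusoff from IC50s of sigmoidal fits of reaction rate against compound concentration. Rates come from chelation-enhanced SOX fluorescence (λex 360/λem 485 nm, read every 30 s over 30 min) as the kinase phosphorylates 10 µM Omnia Tyr 7 peptide at 30 °C, with 1 mM ATP and 0.2 mM DTT.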

The target in a further assay is LRRK2 (Homo sapiens, UniProt Q5S007). Put plainly: LRRK2-LRRK2 G2019S-Assay (LanthaScreen Eu Kinase Binding Assay). Particulars: 5 nM LRRK2 or their mutants, 10 nM tracer 236, RT 1 h; read-out: LRRK2 Activities: IC50. Here is the method:
In the assay LanthaScreen™ Eu Kinase Binding Assay by Invitrogen Corporation (Carlsbad) the effect of invention of a compound on the phosphorylation is determined by measurement of fluorescence intensity emission ratio based on the binding and displacement of a proprietary, Alexa Fluor® 647-labeled, ATP-competitive kinase inhibitor scaffold (kinase tracer) to the kinase of interest. Binding of the tracer to the kinase is detected using a europium-labeled anti-tag antibody, which binds to the kinase of interest. Simultaneous binding of both the tracer and antibody to the kinase results in a high degree of FRET (fluorescence resonance energy transfer) from the europium (Eu) donor fluorophore to the Alexa Fluor® 647 acceptor fluorophore on the kinase tracer. Binding of an inhibitor to the kinase competes for binding with the tracer, resulting in a loss of FRET. The fluorescence intensity ratio is directly proportional to the amount of peptide phosphorylation.
To the wells of an 384 well small volume plate (Greiner, Frickenhausen) are added (i) the compound under test in 5% DMSO/distilled water (5 μl), (ii) 5 μl of the kinase antibody mixture resulting in a final concentration 5 nM LRRK2 or their mutants, 2 nM EU-Anti-GST antibody in 1× kinase buffer A. The reaction was started with addition of (iii) 5 μl resulting in a final concentration of 10 nM tracer 236. The assay plate was incubated at RT for 1 h and fluorescence intensitiy readings were collected using a TECAN M1000 at two wavelengthes of λex 340/λem 615 nm and λex 340/λm 665 nm with a delay time of 100 μs and an integration time of 200 μs after 60 minutes. The emission ratio was calculated by division of the acceptor/tracer emission ([…]) by the antibody/donor emission ([…]). The inhibitor concentration was plotted versus the emission ratio to determine the IC50 using XLFit 5.0 (IDBS, Guildford) to fit to a sigmoidal dose response curve with a variable slope.

As a reminder, the pKi is −log10 of the Ki, conventionally taken in molar units. As a reminder, the pIC50 is the negative decadic logarithm of the IC50, by convention in mol/L.

pIC50, pKi: −log10 of the molar value. A value given as a limit tells only on which side of the number the result lay.

Chain of LRRK2 (Q5S007 970-2527 limits assumed): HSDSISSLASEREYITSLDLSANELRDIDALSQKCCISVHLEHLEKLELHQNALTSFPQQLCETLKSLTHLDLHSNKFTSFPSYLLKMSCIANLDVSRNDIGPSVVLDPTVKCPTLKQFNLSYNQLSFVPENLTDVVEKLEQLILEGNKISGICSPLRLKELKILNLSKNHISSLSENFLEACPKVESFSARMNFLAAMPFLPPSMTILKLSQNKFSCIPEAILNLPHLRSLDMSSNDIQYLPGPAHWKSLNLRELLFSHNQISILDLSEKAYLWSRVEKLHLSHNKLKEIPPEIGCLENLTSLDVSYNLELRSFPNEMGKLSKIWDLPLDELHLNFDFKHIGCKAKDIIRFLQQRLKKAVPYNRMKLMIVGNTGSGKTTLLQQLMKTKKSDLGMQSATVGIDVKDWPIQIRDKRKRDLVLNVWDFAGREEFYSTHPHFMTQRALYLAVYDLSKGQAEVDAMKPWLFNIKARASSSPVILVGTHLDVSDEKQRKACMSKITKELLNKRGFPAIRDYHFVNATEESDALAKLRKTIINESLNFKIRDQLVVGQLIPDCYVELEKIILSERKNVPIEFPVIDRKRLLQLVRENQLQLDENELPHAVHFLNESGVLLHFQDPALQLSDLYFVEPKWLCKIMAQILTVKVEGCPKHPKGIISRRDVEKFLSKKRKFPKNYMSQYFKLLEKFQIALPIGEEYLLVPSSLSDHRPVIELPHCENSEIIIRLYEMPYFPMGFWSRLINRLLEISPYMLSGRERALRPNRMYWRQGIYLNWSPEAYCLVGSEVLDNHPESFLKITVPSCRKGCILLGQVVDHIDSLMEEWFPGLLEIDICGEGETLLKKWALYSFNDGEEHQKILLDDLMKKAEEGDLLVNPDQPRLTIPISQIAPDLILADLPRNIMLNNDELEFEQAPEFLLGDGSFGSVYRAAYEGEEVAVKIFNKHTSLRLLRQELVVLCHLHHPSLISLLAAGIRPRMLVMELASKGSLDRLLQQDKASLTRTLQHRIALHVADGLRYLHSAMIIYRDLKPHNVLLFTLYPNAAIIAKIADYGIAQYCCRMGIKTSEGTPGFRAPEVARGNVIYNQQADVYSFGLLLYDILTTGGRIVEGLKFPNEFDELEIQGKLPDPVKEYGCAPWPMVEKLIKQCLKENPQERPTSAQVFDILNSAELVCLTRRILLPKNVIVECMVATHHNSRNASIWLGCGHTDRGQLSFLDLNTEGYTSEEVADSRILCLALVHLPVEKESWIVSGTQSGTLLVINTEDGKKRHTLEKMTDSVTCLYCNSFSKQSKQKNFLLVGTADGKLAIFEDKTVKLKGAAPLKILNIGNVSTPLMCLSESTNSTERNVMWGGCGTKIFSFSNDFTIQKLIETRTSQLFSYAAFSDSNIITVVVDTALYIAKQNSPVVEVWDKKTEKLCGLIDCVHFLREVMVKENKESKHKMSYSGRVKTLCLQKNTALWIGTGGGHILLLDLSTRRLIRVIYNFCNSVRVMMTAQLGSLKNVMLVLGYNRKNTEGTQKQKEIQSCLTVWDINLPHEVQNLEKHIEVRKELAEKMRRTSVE

Turning to `COc1ccc(Nc2nc(-c3ccc(OC)c(OC)c3)nc3cn[nH]c23)cc1OC` [Example #24, N,5-bis(3,4-dimethoxyphenyl)-1H-pyrazolo[4,3-d]pyrimidin-7-amine], the negative logarithm of the Ki (pKi) on SYK kinase is 7.00 to 8.00. Also, the pIC50 on LRRK2 was 6.00 to 7.00.

On to `COc1ccc(-c2nc(Nc3ccc(N4CCOCC4)cc3)c3[nH]ncc3n2)cc1OC` [Example #25, 5-(3,4-dimethoxyphenyl)-N-(4-morpholinophenyl)-1H-pyrazolo[4,3-d]pyrimidin-7-amine], for which the pKi on SYK kinase is greater than 8.00. The pIC50 on LRRK2 was 6.00 to 7.00.

Take `COc1ccc(-c2nc(Nc3ccc4c(c3)NC(=O)CO4)c3[nH]ncc3n2)cc1OC` [Example #26, 6-((5-(3,4-dimethoxyphenyl)-1H-pyrazolo[4,3-d]pyrimidin-7-yl)amino)-2H-benzo[b][1,4]oxazin-3(4H)-one]: on SYK kinase, the pKi is 7.00 to 8.00. Besides, the pIC50 at LRRK2 was 7.00 to 8.00.

Take `CN1CCC(c2nc(Nc3ccc4cn[nH]c4c3)c3[nH]ncc3n2)CC1` [Example #27, N-(1H-indazol-6-yl)-5-(1-methylpiperidin-4-yl)-1H-pyrazolo[4,3-d]pyrimidin-7-amine]: the pKi at SYK kinase is 7.00 to 8.00. The pIC50 on LRRK2 is 6.00 to 7.00.

Regarding `CN1CCC(c2nc(Nc3ccc(N(C)C)cc3)c3[nH]ncc3n2)CC1` [Example #28, N1,N1-dimethyl-N4-(5-(1-methylpiperidin-4-yl)-1H-pyrazolo[4,3-d]pyrimidin-7-yl)benzene-1,4-diamine], the pKi at SYK kinase is 7.00 to 8.00. On LRRK2, the negative-log IC50 (pIC50) is 6.00 to 7.00.

Regarding `COc1ccc(Nc2nc(-c3ccc(N4CCCC4)nc3)nc3cn[nH]c23)cc1OC` [Example #32, N-(3,4-dimethoxyphenyl)-5-(6-(pyrrolidin-1-yl)pyridin-3-yl)-1H-pyrazolo[4,3-d]pyrimidin-7-amine], the pKi at SYK kinase was 7.00 to 8.00. At LRRK2, the pIC50 was 6.00 to 7.00.

For `c1cc(N2CCOCC2)ccc1Nc1nc(-c2ccc(N3CCCC3)nc2)nc2cn[nH]c12` [Example #33, N-(4-morpholinophenyl)-5-(6-(pyrrolidin-1-yl)pyridin-3-yl)-1H-pyrazolo[4,3-d]pyrimidin-7-amine], the pKi at SYK kinase is greater than 8.00. The pIC50 at LRRK2 is 6.00 to 7.00.

With `c1ccc(-c2nc(Nc3ccc4cn[nH]c4c3)c3[nH]ncc3n2)cc1` [Example #36, N-(1H-indazol-6-yl)-5-phenyl-1H-pyrazolo[4,3-d]pyrimidin-7-amine], on SYK kinase, the pKi was greater than 8.00. Further, the pIC50 on LRRK2 was greater than 8.00.

Take `O=C1COc2ccc(Nc3nc(-c4ccccc4)nc4cn[nH]c34)cc2N1` [Example #37, 6-((5-phenyl-1H-pyrazolo[4,3-d]pyrimidin-7-yl)amino)-2H-benzo[b][1,4]oxazin-3(4H)-one]: the pKi at SYK kinase is 7.00 to 8.00. Also, the pIC50 at LRRK2 is 7.00 to 8.00.

Take `COc1ccc(-c2nc(Nc3ccc4[nH]ncc4c3)c3[nH]ncc3n2)cc1OC` [Example #40, 5-(3,4-dimethoxyphenyl)-N-(1H-indazol-5-yl)-1H-pyrazolo[4,3-d]pyrimidin-7-amine]: on SYK kinase, the pKi was 7.00 to 8.00. At LRRK2, the pIC50 was 6.00 to 7.00.

Turning to `O=C1COc2ccc(Nc3nc(-c4ccc(N5CCCC5)nc4)nc4cn[nH]c34)cc2N1` [Example #47, 6-((5-(6-(pyrrolidin-1-yl)pyridin-3-yl)-1H-pyrazolo[4,3-d]pyrimidin-7-yl)amino)-2H-benzo[b][1,4]oxazin-3(4H)-one], the pKi at SYK kinase is 7.00 to 8.00. The pIC50 at LRRK2 was 6.00 to 7.00.

Consider `c1cc(Nc2nc(-c3ccc(N4CCCC4)nc3)nc3cn[nH]c23)n[nH]1` [Example #48, N-(1H-pyrazol-3-yl)-5-(6-(pyrrolidin-1-yl)pyridin-3-yl)-1H-pyrazolo[4,3-d]pyrimidin-7-amine], for which the negative-log Ki (pKi) at SYK kinase is 6.00 to 7.00. The pIC50 on LRRK2 is 6.00 to 7.00.

As for `CN1CCC(c2nc(Nc3ccc4[nH]ncc4c3)c3[nH]ncc3n2)CC1` [Example #50, N-(1H-indazol-5-yl)-5-(1-methylpiperidin-4-yl)-1H-pyrazolo[4,3-d]pyrimidin-7-amine], at SYK kinase, the pKi is 7.00 to 8.00. For the same compound, the pIC50 on LRRK2 is 6.00 to 7.00.

For the compound `COc1ccc(Nc2nc(C3CCN(C)CC3)nc3cn[nH]c23)cc1OC` [Example #51, N-(3,4-dimethoxyphenyl)-5-(1-methylpiperidin-4-yl)-1H-pyrazolo[4,3-d]pyrimidin-7-amine], on SYK kinase, the pKi was 7.00 to 8.00. Besides, the pIC50 at LRRK2 is 6.00 to 7.00.

Regarding `COc1ccc(-c2nc(Nc3ccc(N4CCOCC4)cc3)c3[nH]ncc3n2)cc1` [Example #59, 5-(4-methoxyphenyl)-N-(4-morpholinophenyl)-1H-pyrazolo[4,3-d]pyrimidin-7-amine], the pKi on SYK kinase was greater than 8.00. In addition, the pIC50 at LRRK2 is 7.00 to 8.00.

In the case of `COc1cccc(-c2nc(Nc3ccc(OC)c(OC)c3)c3[nH]ncc3n2)c1` [Example #60, N-(3,4-dimethoxyphenyl)-5-(3-methoxyphenyl)-1H-pyrazolo[4,3-d]pyrimidin-7-amine], the negative-log Ki (pKi) on SYK kinase was greater than 8.00. Moreover, the pIC50 at LRRK2 is 6.00 to 7.00.

As for `COc1cccc(-c2nc(Nc3ccc(N4CCOCC4)cc3)c3[nH]ncc3n2)c1` [Example #61, 5-(3-methoxyphenyl)-N-(4-morpholinophenyl)-1H-pyrazolo[4,3-d]pyrimidin-7-amine], the pKi on SYK kinase is greater than 8.00. Further, on LRRK2, the pIC50 was 6.00 to 7.00.

Turning to `COc1cccc(-c2nc(Nc3ccc(N(C)C)cc3)c3[nH]ncc3n2)c1` [Example #63, N1-(5-(3-methoxyphenyl)-1H-pyrazolo[4,3-d]pyrimidin-7-yl)-N4,N4-dimethylbenzene-1,4-diamine], the pKi at SYK kinase is greater than 8.00. At LRRK2, the pIC50 was 6.00 to 7.00.

In the case of `c1ccc(-c2nc(Nc3ccc4c(c3)NCCO4)c3[nH]ncc3n2)cc1` [Example #64, N-(5-phenyl-1H-pyrazolo[4,3-d]pyrimidin-7-yl)-3,4-dihydro-2H-benzo[b][1,4]oxazin-6-amine], the pKi on SYK kinase is greater than 8.00. Besides, the pIC50 on LRRK2 was 7.00 to 8.00.

Take `Oc1cccc(Nc2nc(-c3ccccc3)nc3cn[nH]c23)c1` [Example #65, 3-((5-phenyl-1H-pyrazolo[4,3-d]pyrimidin-7-yl)amino)phenol]: the pKi at SYK kinase was 7.00 to 8.00. For the same compound, the pIC50 at LRRK2 is 6.00 to 7.00.

`COc1ccc(-c2nc(Nc3ccc(N4CCN(C)CC4)cc3)c3[nH]ncc3n2)cc1` [Example #66, 5-(4-methoxyphenyl)-N-(4-(4-methylpiperazin-1-yl)phenyl)-1H-pyrazolo[4,3-d]pyrimidin-7-amine]: the pKi on SYK kinase was greater than 8.00. In addition, on LRRK2, the pIC50 was 6.00 to 7.00.

On to `COc1cccc(-c2nc(Nc3ccc4cn[nH]c4c3)c3[nH]ncc3n2)c1` [Example #67, N-(1H-indazol-6-yl)-5-(3-methoxyphenyl)-1H-pyrazolo[4,3-d]pyrimidin-7-amine], for which the pKi on SYK kinase is greater than 8.00. Also, on LRRK2, the pIC50 is 6.00 to 7.00.

As to `c1csc(-c2nc(Nc3ccc(N4CCOCC4)cc3)c3[nH]ncc3n2)c1` [Example #69, N-(4-morpholinophenyl)-5-(thiophen-2-yl)-1H-pyrazolo[4,3-d]pyrimidin-7-amine], the negative logarithm of the Ki (pKi) on SYK kinase is greater than 8.00. Moreover, the pIC50 on LRRK2 is 7.00 to 8.00.

As for `CN(C)c1ccc(Nc2nc(-c3cccs3)nc3cn[nH]c23)cc1` [Example #71, N1,N1-dimethyl-N4-(5-(thiophen-2-yl)-1H-pyrazolo[4,3-d]pyrimidin-7-yl)benzene-1,4-diamine], the pKi at SYK kinase is greater than 8.00. For the same compound, on LRRK2, the pIC50 was 7.00 to 8.00.

With `COc1ccc(Nc2nc(-c3ccsc3)nc3cn[nH]c23)cc1OC` [Example #72, N-(3,4-dimethoxyphenyl)-5-(thiophen-3-yl)-1H-pyrazolo[4,3-d]pyrimidin-7-amine], the pKi on SYK kinase is greater than 8.00. For the same compound, the pIC50 at LRRK2 was 7.00 to 8.00.
